From ChEMBL document CHEMBL4425100, “Design, Synthesis, and Evaluation of in Vitro and in Vivo Anticancer Activity of 4-Substituted Coumarins: A Novel Class of Potent Tubulin Polymerization Inhibitors” (J Med Chem, 2016)
Where a name gives a salt, the structure may show the parent alone. Values belong to the compound of their own block, whether it stands above or below them. Active and inactive are the calls of the source. The rule behind the calls is not given here.

How the values were obtained:
[1] = Solubility of the compound in […] ethanol/[…] Tween-80 at 1 mg; type: physicochemical
NCI/ADR-RES [2] = assay: Cytotoxicity against P-gp overexpressing human MCF7/ADR cells assessed as reduction in cell growth after 24 hrs by MTT assay; type: functional, cell-based
NCI/ADR-RES [3] = assay: Antitumor activity against P-gp overexpressing human MCF7/ADR cells xenografted in mouse assessed as tumor growth inhibition at 4 mg/kg, iv qd administered every 2 days measured during compound dosing; type: functional; conditions: 48 h, read-out: TGI
[4] = Toxicity in mouse xenografted with P-gp overexpressing human MCF7/ADR cells assessed as body weight loss at 4 mg/kg, iv qd administered every 2 days measured during compound dosing; type: organism-based; conditions: in vivo, 48 h
A2780/Taxol [5] = assay: Cytotoxicity against beta-tubulin 3 overexpressing human A2780T cells assessed as reduction in cell growth after 24 hrs by MTT assay; type: functional, cell-based
HCT-8 [6] = assay: Cytotoxicity against vinblastine resistant/P-gp overexpressing human HCT8 cells assessed as reduction in cell growth after 24 hrs by MTT assay; type: functional, cell-based; conditions: HCT-8, 24 h
HCT-8 [7] = assay: Antiproliferative activity against human HCT8 cells after 24 hrs by MTT assay; type: functional, cell-based; conditions: HCT-8, 24 h
MCF7 [8] = assay: cells; conditions: Homo sapiens, MCF7, 24 h
Description: Antiproliferative activity against human MCF7 cells after 24 hrs by MTT assay

HCT-116 = assay: Antiproliferative activity against human HCT116 cells after 24 hrs by MTT assay; type: functional, cell-based; conditions: HCT-116, 24 h
HepG2 = assay: cells; conditions: Homo sapiens, HepG2, 24 h
Description: Antiproliferative activity against human HepG2 cells after 24 hrs by MTT assay

SK-OV-3 = assay: Antiproliferative activity against human SKOV3 cells after 24 hrs by MTT assay; type: functional, cell-based; conditions: SK-OV-3, 24 h
Tubulin (Homo sapiens) [9] = biological target: T1, Tubulin (Homo sapiens) (UniProt P68371+Q9H4B7+P0DPH7+P68366+Q13509+Q71U36+P04350+Q3ZCM7+P07437+P68363+Q9BQE3+Q6PEY2+Q13885+Q9BVA1+Q9BUF5); assay: Binding affinity to tubulin in human HepG2 cells assessed as induction of abnormal chromosomal aggregation at 100 nM after 16 to 24 hrs by DAPI staining-based immunofluorescence microscopy; type: cell-based
Tubulin (Homo sapiens) [10] = biological target: T1, Tubulin (Homo sapiens); assay: Binding affinity to tubulin in human HepG2 cells assessed as inhibition of microtubule network formation in cytosol at 100 nM after 16 to 24 hrs by DAPI staining-based immunofluorescence microscopy; type: cell-based
[11] = Toxicity in mouse allografted with mouse C26 cells assessed as body weight loss at 2.5 to 5 mg/kg, iv qd administered every 2 days measured daily during compound dosing; type: organism-based; conditions: in vivo, 48 h
[12] = Toxicity in mouse xenografted with human H460 cells assessed as body weight loss at 2.5 to 5 mg/kg, iv qd administered every 2 days measured daily during compound dosing; type: organism-based; conditions: in vivo, 48 h
Tubulin (Sus scrofa) [13] = biological target: T2, Tubulin (Sus scrofa) (UniProt P02554+P02550); assay: Inhibition of porcine brain tubulin polymerization at 10 uM preincubated for 5 mins followed by GTP addition measured every 2 mins by spectrophotometry
T2 sequence (P02550 whole entry, looked up): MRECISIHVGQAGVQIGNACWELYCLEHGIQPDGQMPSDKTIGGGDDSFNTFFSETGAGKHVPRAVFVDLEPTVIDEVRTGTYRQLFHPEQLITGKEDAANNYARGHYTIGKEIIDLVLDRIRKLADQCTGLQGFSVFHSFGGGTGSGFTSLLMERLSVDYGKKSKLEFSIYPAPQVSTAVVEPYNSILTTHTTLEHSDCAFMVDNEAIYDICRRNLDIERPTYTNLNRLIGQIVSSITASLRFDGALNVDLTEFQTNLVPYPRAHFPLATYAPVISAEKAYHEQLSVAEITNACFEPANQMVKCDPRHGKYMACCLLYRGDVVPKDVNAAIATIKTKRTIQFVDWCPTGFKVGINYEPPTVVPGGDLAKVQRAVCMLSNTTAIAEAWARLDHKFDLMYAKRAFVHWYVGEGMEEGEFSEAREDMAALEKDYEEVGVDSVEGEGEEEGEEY
T2 sequence (P02554 whole entry, looked up): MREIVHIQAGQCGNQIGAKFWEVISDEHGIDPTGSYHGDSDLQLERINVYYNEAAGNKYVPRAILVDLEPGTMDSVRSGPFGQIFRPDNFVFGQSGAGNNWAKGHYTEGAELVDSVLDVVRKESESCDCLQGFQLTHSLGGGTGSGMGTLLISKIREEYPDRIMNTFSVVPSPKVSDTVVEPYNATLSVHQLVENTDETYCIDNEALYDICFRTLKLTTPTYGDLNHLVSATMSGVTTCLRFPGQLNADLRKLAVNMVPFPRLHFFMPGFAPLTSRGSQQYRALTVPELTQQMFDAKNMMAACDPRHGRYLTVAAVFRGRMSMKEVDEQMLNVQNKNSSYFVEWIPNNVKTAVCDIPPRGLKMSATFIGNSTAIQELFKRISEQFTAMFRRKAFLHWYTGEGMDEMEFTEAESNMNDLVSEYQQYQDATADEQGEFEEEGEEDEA

[14] = Toxicity in mouse xenografted with human H460 cells assessed as mortality at 2.5 to 5 mg/kg, iv qd administered every 2 days measured daily during compound dosing; type: organism-based; conditions: in vivo, 48 h
[15] = Toxicity in mouse allografted with mouse C26 cells assessed as mortality at 2.5 to 5 mg/kg, iv qd administered every 2 days measured daily during compound dosing; type: organism-based; conditions: in vivo, 48 h
Tubulin (Homo sapiens) [16] = biological target: T1, Tubulin (Homo sapiens); assay: Binding affinity to microtubule in human HepG2 cells assessed as bundling of microtubule fibers near nucleus at 300 nM after 24 hrs by immunofluorescence staining-based confocal microscopy; type: cell-based
[17] = Toxicity in mouse xenografted with beta-tubulin 3 overexpressing human A2780T cells assessed as body weight loss at 30 mg/kg, iv qd administered once a week; type: organism-based; conditions: in vivo
[18] = Toxicity in mouse xenografted with human MCF7 cells assessed as body weight loss at 24 mg/kg, iv qd administered once a week; type: organism-based; conditions: in vivo
[19] = Toxicity in mouse xenografted with human MCF7 cells assessed as body weight loss at 5 mg/kg, iv qd administered every 2 days measured during compound dosing; type: organism-based; conditions: in vivo, 48 h
MCF7 [20] = assay: Antitumor activity against human MCF7 cells xenografted in mouse assessed as tumor growth inhibition at 5 mg/kg, iv qd administered every 2 days measured during compound dosing; type: functional; conditions: 48 h, read-out: TGI
A2780/Taxol [21] = assay: Antitumor activity against beta-tubulin 3 overexpressing human A2780T cells xenografted in mouse assessed as tumor growth inhibition at 30 mg/kg, iv qd administered once a week; type: functional; conditions: read-out: TGI
[22] = Toxicity in mouse xenografted with beta-tubulin 3 overexpressing human A2780T cells assessed as abnormal behavior at 30 mg/kg, iv qd administered once a week; type: organism-based; conditions: in vivo
Tubulin (Homo sapiens) [23] = biological target: T1, Tubulin (Homo sapiens); assay: Binding affinity to microtubule in human HepG2 cells assessed as inhibition of spindle formation after 24 hrs by immunofluorescence staining-based confocal microscopy; type: cell-based
Tubulin (Homo sapiens) [24] = biological target: T1, Tubulin (Homo sapiens); assay: Inhibition of microtubule polymerization in human HepG2 cells after 24 hrs by immunofluorescence staining-based confocal microscopy; type: cell-based
[25] = biological target: Tubulin beta (Homo sapiens) (UniProt P68371+Q9H4B7+Q13509+P04350+Q3ZCM7+P07437+Q13885+Q9BVA1+Q9BUF5+A6NNZ2); assay: Competitive binding affinity to beta-tubulin in human HepG2 cells assessed as disappearance of EBI-protein adducts preincubated for 2 hrs followed by EBI addition measured after […] by Western blot analysis; type: cell-based
Tubulin (Sus scrofa) [26] = biological target: T2, Tubulin (Sus scrofa); assay: Inhibition of porcine brain tubulin polymerization preincubated for 5 mins followed by GTP addition measured every 2 mins by spectrophotometry

SMILES: COc1cccc2c1C(=O)c1c(O)c3c(c(O)c1C2=O)C[C@@](O)(C(=O)CO)C[C@@H]3O[C@H]1C[C@H](N)[C@H](O)[C@H](C)O1 [DOXORUBICIN HYDROCHLORIDE]
IC50 (NCI/ADR-RES [2]): 8.15 µM | inhibition in vivo at 4 mg/kg (NCI/ADR-RES [3]): 33.3% | Activity [4]: Toxic

SMILES: CC[C@]1(O)C[C@@H]2CN(CCc3c([nH]c4ccccc34)[C@@](C(=O)OC)(c3cc4c(cc3OC)N(C)[C@H]3[C@@](O)(C(=O)OC)[C@H](OC(C)=O)[C@]5(CC)C=CCN6CC[C@]43[C@@H]65)C2)C1 [VINBLASTINE]
IC50 (NCI/ADR-RES [2]): 5.85 µM | IC50 (A2780/Taxol [5]): 6.9 µM | IC50 (HCT-8 [6]): 5.21 µM | IC50 (HCT-8 [7]): 0.0148 µM | IC50 (MCF7 [8]): 0.0547 µM

SMILES: COc1ccc(N(C)c2cc(=O)oc3ccccc23)cc1OCCN1CCOCC1
IC50 (HCT-116): > 5 µM | IC50 (HepG2): > 5 µM | IC50 (SK-OV-3): > 5 µM

SMILES: COc1ccc(N(C)c2cc(=O)oc3ccccc23)cc1N
solubility [1]: Insoluble

SMILES: CCCCCCCCCC(=O)Nc1cc(N(C)c2cc(=O)oc3ccccc23)ccc1OC
solubility [1]: Insoluble

SMILES: COc1ccc2c(-c3ccc(-c4ccc5c(c4)OCO5)s3)cc(=O)oc2c1
IC50 (HCT-116): > 5 µM | IC50 (HepG2): > 5 µM | IC50 (SK-OV-3): > 5 µM

SMILES: COc1ccc(N(C)c2nc(C)nc3ccccc23)cc1 [VERUBULIN]
IC50 (HCT-116): 0.0043 µM | Activity [11]: Toxic | Activity [12]: Toxic | inhibition (Tubulin (Sus scrofa) [13]): Active | Activity [14]: Toxic | IC50 (HepG2): 0.0046 µM | Activity [15]: Toxic | IC50 (SK-OV-3): 0.0032 µM

SMILES: COc1cc2c(c(OC)c1OC)-c1ccc(OC)c(=O)cc1[C@@H](NC(C)=O)CC2 [COLCHICINE]
IC50 (A2780/Taxol [5]): 8.67 µM | IC50 (HCT-8 [6]): 2.43 µM | IC50 (HepG2): 0.0428 µM | IC50 (SK-OV-3): 0.0519 µM

SMILES: CC(=O)O[C@H]1C(=O)[C@@]2(C)[C@H]([C@H](OC(=O)c3ccccc3)[C@]3(O)C[C@H](OC(=O)[C@H](O)[C@@H](NC(=O)c4ccccc4)c4ccccc4)C(C)=C1C3(C)C)[C@]1(OC(C)=O)CO[C@@H]1C[C@@H]2O [PACLITAXEL]
IC50 (NCI/ADR-RES [2]): 9.15 µM | Activity (Tubulin (Homo sapiens) [16]): Active | Activity [17]: Toxic | Activity [18]: Toxic | Activity [19]: Toxic | inhibition in vivo at 5 mg/kg (MCF7 [20]): 59.2% | IC50 (A2780/Taxol [5]): 56.6 µM | inhibition in vivo at 30 mg/kg (A2780/Taxol [21]): 37.7% | IC50 (HCT-8 [6]): 0.189 µM | Activity [22]: Toxic

SMILES: COc1ccc(N(C)c2cc(=O)oc3ccccc23)cc1NC(=O)CCCCCl
Activity (Tubulin (Homo sapiens) [9]): Active | inhibition (Tubulin (Homo sapiens) [23]): Dose-dependent effect | inhibition (Tubulin (Homo sapiens) [24]): Dose-dependent effect | inhibition of microtubule network formation (active/inactive) (Tubulin (Homo sapiens) [10]): Active | solubility [1]: Soluble | Activity [25]: Dose-dependent effect | inhibition (Tubulin (Sus scrofa) [26]): Dose-dependent effect

SMILES: CC/C=C(\C)C(=O)Nc1cc(N(C)c2cc(=O)oc3ccccc23)ccc1OC
solubility [1]: Insoluble

SMILES: COC(=O)CCCC(=O)Nc1cc(N(C)c2cc(=O)oc3ccccc23)ccc1OC
Activity (Tubulin (Homo sapiens) [9]): Active | inhibition of microtubule network formation (active/inactive) (Tubulin (Homo sapiens) [10]): Active | solubility [1]: Soluble

SMILES: COc1ccc2c(N(C)c3ccc(OC)c(O)c3)cc(=O)oc2c1
solubility [1]: Insoluble

SMILES: COc1ccc(-c2ccc(-c3cc(=O)oc4cc(OC)ccc34)s2)cc1
IC50 (HCT-116): > 5 µM | IC50 (HepG2): > 5 µM | IC50 (SK-OV-3): > 5 µM

SMILES: C=CCCC(=O)Nc1cc(N(C)c2cc(=O)oc3ccccc23)ccc1OC
Activity (Tubulin (Homo sapiens) [9]): Active | inhibition of microtubule network formation (active/inactive) (Tubulin (Homo sapiens) [10]): Active | solubility [1]: Soluble

SMILES: CCOC(=O)CCC(=O)Nc1cc(N(C)c2cc(=O)oc3ccccc23)ccc1OC
solubility [1]: Insoluble

Other lines, results leading:

solubility [1]: Insoluble
SMILES: C=C(C)C(=O)Oc1cc(N(C)c2cc(=O)oc3ccccc23)ccc1OC

solubility [1]: Insoluble
SMILES: COc1ccc(N(C)c2cc(=O)oc3ccccc23)cc1OC(=O)CCl

solubility [1]: Insoluble
SMILES: COc1ccc(N(C)c2cc(=O)oc3ccccc23)cc1OC(=O)CC(C)(C)C

solubility [1]: Insoluble
SMILES: CCC/C=C/C(=O)Oc1cc(N(C)c2cc(=O)oc3ccccc23)ccc1OC

Activity (Tubulin (Homo sapiens) [9]): Active | inhibition of microtubule network formation (active/inactive) (Tubulin (Homo sapiens) [10]): Active | solubility [1]: Soluble
SMILES: C/C=C/C(=O)Oc1cc(N(C)c2cc(=O)oc3ccccc23)ccc1OC

Activity (Tubulin (Homo sapiens) [9]): Active | inhibition of microtubule network formation (active/inactive) (Tubulin (Homo sapiens) [10]): Active | solubility [1]: Soluble
SMILES: COc1ccc(N(C)c2cc(=O)oc3ccccc23)cc1OC(=O)CCCCCl

solubility [1]: Insoluble
SMILES: C=CC(=O)Oc1cc(N(C)c2cc(=O)oc3ccccc23)ccc1OC

solubility [1]: Insoluble
SMILES: CCOC(=O)CCC(=O)Oc1cc(N(C)c2cc(=O)oc3ccccc23)ccc1OC

solubility [1]: Insoluble
SMILES: CCC(=O)Oc1cc(N(C)c2cc(=O)oc3ccccc23)ccc1OC

solubility [1]: Insoluble
SMILES: COc1ccc(N(C)c2cc(=O)oc3ccccc23)cc1OC(=O)CBr

solubility [1]: Insoluble
SMILES: COc1ccc(N(C)c2cc(=O)oc3ccccc23)cc1OC(=O)C(C)(C)C

solubility [1]: Insoluble
SMILES: COc1ccc(N(C)c2cc(=O)oc3ccccc23)cc1OC(C)=O

solubility [1]: Insoluble
SMILES: COc1ccc(N(C)c2cc(=O)oc3ccccc23)cc1O

solubility [1]: Insoluble
SMILES: CCCCCC(=O)Nc1cc(N(C)c2cc(=O)oc3ccccc23)ccc1OC

Activity (Tubulin (Homo sapiens) [9]): Active | inhibition of microtubule network formation (active/inactive) (Tubulin (Homo sapiens) [10]): Active | solubility [1]: Soluble
SMILES: COC(=O)CCCC(=O)Oc1cc(N(C)c2cc(=O)oc3ccccc23)ccc1OC

solubility [1]: Insoluble
SMILES: COc1ccc(N(C)c2cc(=O)oc3ccccc23)cc1OC(=O)C1CC1

Activity (Tubulin (Homo sapiens) [9]): Active | inhibition of microtubule network formation (active/inactive) (Tubulin (Homo sapiens) [10]): Active | solubility [1]: Soluble
SMILES: CC/C=C(\C)C(=O)Oc1cc(N(C)c2cc(=O)oc3ccccc23)ccc1OC

solubility [1]: Insoluble
SMILES: C=CCCC(=O)Oc1cc(N(C)c2cc(=O)oc3ccccc23)ccc1OC

solubility [1]: Insoluble
SMILES: CCCCC(=O)Oc1cc(N(C)c2cc(=O)oc3ccccc23)ccc1OC

solubility [1]: Insoluble
SMILES: CCCCCCCCCC(=O)Oc1cc(N(C)c2cc(=O)oc3ccccc23)ccc1OC

solubility [1]: Insoluble
SMILES: COc1ccc(N(C)c2cc(=O)oc3ccccc23)cc1OC(=O)C=C(C)C

solubility [1]: Insoluble
SMILES: CCCCCC(=O)Oc1cc(N(C)c2cc(=O)oc3ccccc23)ccc1OC

solubility [1]: Insoluble
SMILES: C/C=C/C(=O)Nc1cc(N(C)c2cc(=O)oc3ccccc23)ccc1OC
